Measured values: PMC12114297 (Molecules, 2025)

How the values were obtained:
[1] = molecular target: T1, BChE from equine serum (eqBuChE) (Equus caballus, UniProt P81908); assay: biochemical; conditions: average ± standard error (n = 3); for inhibition at 20 µM: read-out: BChE % of Inhibition (Conc. 20 μM), 20 μM
T1 construct: BChE from equine serum (BChE, EC 3.1.1.8); purchased Sigma-Aldrich (St. Louis, MO, USA); host or cells: equine serum
Experimental: The in vitro cholinesterase inhibitory activity of the synthesized hybrid molecules was evaluated using a modified Ellman’s assay, optimized for 96-well microplate application. AChE from Electrophorus electricus (AChE, EC 3.1.1.7), BChE from equine serum (BChE, EC 3.1.1.8), acetylthiocholine iodide (ATCh), butyrylthiocholine iodide (BTCh), and 5,5′-dithiobis(2-nitrobenzoic acid) were purchased from Sigma-Aldrich (St. Louis, MO, USA) and used without further purification.
Test compounds were initially dissolved in dimethylsulphoxide (DMSO) to yield 1 mM stock solutions and subsequently diluted with 0.1 M phosphate buffer (pH 8.0) to prepare working solutions.
For the assay, 20 µL of compound solution was added to 140 µL of 0.1 M phosphate buffer (pH 8.0) in each well, followed by 20 µL of enzyme solution (AChE or BuChE, 100 U/L). After incubation at room temperature for 10 min, the reaction was initiated by adding 10 µL of DTNB (0.01 M) and 10 µL of substrate (ATCh or BTCh, 0.015 M). […] The percentage inhibition of enzyme activity was calculated using the following equation:(1) % Inhibition=Absorbance of control−Apsorbance of sample/Absorbance of control×100 where the absorbance of the control represents the maximum enzyme activity (without inhibition), and the absorbance of the sample corresponds to the enzyme activity in the presence of the tested compound. Appropriate blanks were included to account for background absorbance and to correct for any intrinsic color of the tested compounds.
All experiments were performed in triplicate.

[2] = molecular target: T2, AChE from Electrophorus electricus (eeAChE) (Electrophorus electricus, UniProt O42275); assay: biochemical; conditions: read-out: AChE % of Inhibition (Conc. 20 μM)
T2 construct: purchased Sigma-Aldrich (St. Louis, MO, USA)
T2 sequence (O42275 24-633): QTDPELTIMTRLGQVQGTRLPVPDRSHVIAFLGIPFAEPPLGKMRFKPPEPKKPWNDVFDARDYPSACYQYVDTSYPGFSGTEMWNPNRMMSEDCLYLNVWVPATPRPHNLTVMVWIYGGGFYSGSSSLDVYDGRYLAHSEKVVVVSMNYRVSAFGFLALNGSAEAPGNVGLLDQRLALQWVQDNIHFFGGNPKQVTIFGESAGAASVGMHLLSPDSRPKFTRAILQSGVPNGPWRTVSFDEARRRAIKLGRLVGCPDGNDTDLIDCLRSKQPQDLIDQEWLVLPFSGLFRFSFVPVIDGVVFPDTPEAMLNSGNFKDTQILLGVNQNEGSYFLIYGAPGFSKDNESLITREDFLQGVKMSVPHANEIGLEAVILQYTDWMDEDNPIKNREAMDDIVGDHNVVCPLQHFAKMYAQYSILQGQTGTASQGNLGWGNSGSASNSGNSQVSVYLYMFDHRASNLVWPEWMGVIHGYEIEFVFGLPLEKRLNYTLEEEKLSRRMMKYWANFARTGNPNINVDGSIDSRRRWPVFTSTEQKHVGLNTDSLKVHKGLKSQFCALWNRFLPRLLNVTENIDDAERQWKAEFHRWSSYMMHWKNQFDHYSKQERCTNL

[3] = tested on: Staphylococcus aureus ATCC 25923; assay: Agar well diffusion, S. aureus; format: cell-based; conditions: for Antibacterial activity in words: agar well diffusion, particularly S. aureus
Experimental: The antimicrobial potential of the synthesized coumarin–triazole–isatin hybrids was evaluated by the agar well diffusion method. The activity was tested against a variety of Gram-positive bacteria (Staphylococcus aureus ATCC 25923 and ATCC 902710, Staphylococcus epidermidis ATCC 12228, Streptococcus pyogenes ATCC 19615, Enterococcus faecalis ATCC 51299), Gram-negative bacteria (Escherichia coli ATCC 25922, Haemophilus influenzae ATCC 49766, Pseudomonas aeruginosa ATCC 27853, Salmonella typhi ATCC 14028, Neisseria meningitidis ATCC 13090, Neisseria gonorrhoeae ATCC 43069), and fungi (Candida albicans ATCC 60193 and ATCC 90028, Candida orientalis ATCC 6258). All microbial strains were obtained from Microbiologics (St.Cloud, MN, USA).
The test compounds were dissolved in DMSO to obtain stock solutions (1 mg/mL). Each compound (60 µL) was transferred into wells (6 mm in diameter) that were previously perforated into agar plates inoculated with microbial suspensions standardized to 0.5 McFarland for bacteria and 2 McFarland for Candida spp. DMSO was used as a negative control, while commercial antibiotic disks of novobiocin (5 μg), ampicillin (10 μg), and ciprofloxacin (5 μg) served as positive controls. Antimicrobial activity was assessed by measuring the diameter of zones of inhibition (ZOIs) in millimeters. All tests were conducted in triplicate.

T1 sequence (P81908 whole entry): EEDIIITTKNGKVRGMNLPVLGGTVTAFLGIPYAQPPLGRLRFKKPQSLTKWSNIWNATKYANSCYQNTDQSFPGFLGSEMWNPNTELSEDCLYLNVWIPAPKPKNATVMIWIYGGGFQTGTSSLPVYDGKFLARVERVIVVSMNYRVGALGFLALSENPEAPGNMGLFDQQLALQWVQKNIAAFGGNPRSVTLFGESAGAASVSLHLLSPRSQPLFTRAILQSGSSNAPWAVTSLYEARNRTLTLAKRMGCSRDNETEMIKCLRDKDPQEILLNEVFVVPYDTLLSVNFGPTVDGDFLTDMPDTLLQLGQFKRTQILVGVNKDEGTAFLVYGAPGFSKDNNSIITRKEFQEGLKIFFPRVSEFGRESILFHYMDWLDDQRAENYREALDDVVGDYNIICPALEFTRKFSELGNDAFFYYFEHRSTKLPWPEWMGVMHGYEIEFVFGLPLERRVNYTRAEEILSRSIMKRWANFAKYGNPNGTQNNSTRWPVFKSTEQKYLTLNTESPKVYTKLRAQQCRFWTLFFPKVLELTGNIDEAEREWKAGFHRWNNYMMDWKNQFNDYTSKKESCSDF

| SMILES | BChE % of Inhibition (Conc. 20 μM) [1] | inhibition at 20 µM [1] | inhibition at 20 µM [2] | Antibacterial activity in words [3] | zone of inhibition at 1000 µg/mL ([3]; Staphylococcus aureus, ATCC25923, 60 µL of 1 mg/mL per well, ZOI including the well (6 mm), ± SD, n = 3, ciprofloxacin disk 5 μg, read-out: Staphylococcus aureus ATCC 25923 ZOI) |
| --- | --- | --- | --- | --- | --- |
| O=C1C(=O)N(Cc2cn(CCCOc3cc(=O)oc4ccccc34)nn2)c2ccc([N+](=O)[O-])cc21 [Compound 6b6, 5-nitro-1-((1-(3-((2-oxo-2H-chromen-4-yl)oxy)propyl)-1H-1,2,3-triazol-4-yl)methyl)indoline-2,3-dione] | 5.89 ± 1.91% | < 6% | 17.9 ± 1.91% | largely inactive | – |
| O=C1C(=O)N(Cc2cn(CCOc3cc(=O)oc4ccccc34)nn2)c2ccc([N+](=O)[O-])cc21 [Compound 6a6, 5-nitro-1-((1-(2-((2-oxo-2H-chromen-4-yl)oxy)ethyl)-1H-1,2,3-triazol-4-yl)methyl)indoline-2,3-dione] | 4.89 ± 0.74% | < 6% | 3.11 ± 0.44% | largely inactive | – |
| Cc1ccc2c(c1)C(=O)C(=O)N2Cc1cn(CCCOc2cc(=O)oc3ccccc23)nn1 [Compound 6b7, 5-methyl-1-((1-(3-((2-oxo-2H-chromen-4-yl)oxy)propyl)-1H-1,2,3-triazol-4-yl)methyl)indoline-2,3-dione] | 4.88 ± 0.27% | – | 24.4 ± 1.27% | largely inactive | – |
| O=C1C(=O)N(Cc2cn(CCCCOc3cc(=O)oc4ccccc34)nn2)c2ccc([N+](=O)[O-])cc21 [Compound 6c6, 5-nitro-1-((1-(4-((2-oxo-2H-chromen-4-yl)oxy)butyl)-1H-1,2,3-triazol-4-yl)methyl)indoline-2,3-dione] | 4.15 ± 0.54% | < 6% | 19 ± 1.96% | largely inactive | – |
| Cc1ccc2c(c1)C(=O)C(=O)N2Cc1cn(CCCCOc2cc(=O)oc3ccccc23)nn1 [Compound 6c7, 5-methyl-1-((1-(4-((2-oxo-2H-chromen-4-yl)oxy)butyl)-1H-1,2,3-triazol-4-yl)methyl)indoline-2,3-dione] | 10.32 ± 1.53% | < 11% | 12.1 ± 1.26% | largely inactive | – |
| O=C1C(=O)N(Cc2cn(CCCCOc3cc(=O)oc4ccccc34)nn2)c2ccc(I)cc21 [Compound 6c5, 5-iodo-1-((1-(4-((2-oxo-2H-chromen-4-yl)oxy)butyl)-1H-1,2,3-triazol-4-yl)methyl)indoline-2,3-dione] | – | 22.9 ± 1.64% | 11.2 ± 1.64% | largely inactive | – |
| O=C1C(=O)N(Cc2cn(CCOc3cc(=O)oc4ccccc34)nn2)c2ccc(I)cc21 [Compound 6a5, 5-iodo-1-((1-(2-((2-oxo-2H-chromen-4-yl)oxy)ethyl)-1H-1,2,3-triazol-4-yl)methyl)indoline-2,3-dione] | – | 40.9 ± 6.26% | 3.17 ± 0.26% | largely inactive | – |
| Cc1ccc2c(c1)C(=O)C(=O)N2Cc1cn(CCOc2cc(=O)oc3ccccc23)nn1 [Compound 6a7, 5-methyl-1-((1-(2-((2-oxo-2H-chromen-4-yl)oxy)ethyl)-1H-1,2,3-triazol-4-yl)methyl)indoline-2,3-dione] | 2.91 ± 0.15% | – | 22.8 ± 3.66% | largely inactive | – |
| O=C1C(=O)N(Cc2cn(CCCCOc3cc(=O)oc4ccccc34)nn2)c2ccc(Br)cc21 [Compound 6c4, 5-bromo-1-((1-(4-((2-oxo-2H-chromen-4-yl)oxy)butyl)-1H-1,2,3-triazol-4-yl)methyl)indoline-2,3-dione] | – | 27.1 ± 2.19% | 9.84 ± 1.19% | only weak antibacterial activity | 12 to 20 mm |
| COc1cc2c(cc1OC)C(=O)C(CC1CCN(Cc3ccccc3)CC1)C2 (stereo not drawn) [Donepezil, donepezil, reference compound] | – | 74.2 ± 6.17% | – | – | – |
